Source: patent US8697636B2 (priority 2007, dated 2014)
In brackets after ≈: the same amount, converted by molar mass.

Tests used:
[1] = system: C. perfringens; assay: microbe, parasite or virus in culture; assay type: cell-based; conditions: Clostridium perfringens, read-out: minimum inhibitory concentration
[2] = system: pathogenic Clostridium sp.; conditions: cited from earlier work

Row | Compound | MIC [1] [µg/mL] | activity against pathogenic Clostridium sp. [2]
1 | Cc1ncc([N+](=O)[O-])n1CCO [metronidazole] | 25 (≈ 146 µM) | 
2 | ruminococcin A |  | active
